Experimental data from patent US9758492B2, “IDO inhibitors” (Bristol-Myers Squibb Company, priority 2013, dated 2017).

How the values were obtained:
[1] = target: T1, IDO (Homo sapiens, UniProt P14902); assay: Kynurenine assay in Hela cells stimulated with IFN-γ to express IDO; assay type: cell-based; parameters: endogenous in cells; host or cells: HeLa (ATCC CCL-2), stimulated with human recombinant IFN-gamma; conditions: 20 h, read-out: Hela Kyurenine (IC50)
Protocol: IFNg (R&D, 28-IF-100)—resuspend at 10 ug/mL in PBS with 0.1% BSA 30% TCA
Ehrlich reagent (2% w/v p-dimethylaminobenzaldehyde in glacial acetic acid)
Cell Titer 96 Aqueous Non-Radioactive Cell Proliferation Assay, MTS (Promega, Cat # G5430)
Cell Lines and Culture Conditions
Hela cancer cell lines were acquired from the American Type Culture Collection. Cells were maintained in phenol red free-RPMI1640 medium containing high glucose and L-glutamine (Invitrogen) supplemented with 10% fetal bovine serum (FBS; Invitrogen). Cell cultures were incubated at 37° C., 5% CO2, and 100% humidity.
Cell Treatment and Kynurenine Assay
Hela cells were seeded on 96-well plates (40,000 cells per well) and allowed to adhere for 5-6 hours. Cells were then treated with vehicle (DMSO) or with IDO inhibitor at a top dose of 30 μM (3-fold dilution all the way down to 1.5 nM). A final concentration of 100 ng/mL of human recombinant IFN-γ (R&D, 28-IF-100) was immediately added to the cells to stimulate IDO expression. Treated cells were then incubated for 20 hours at 37° C. At the end of the 20 h incubation, reactions were terminated by the addition of 30% TCA to each well. Plates were incubated for 30 minutes at 50° C. to hydrolyze N-formylkynurenine to kynurenine. Cells were centrifuged 10 minutes at 2400 rpm. 100 ul of supernatants were transferred to new 96 flat well plates and mixed with 100 ul Ehrlich reagent. The resulting solution was incubated 10 minutes at RT. Absorbance at 490 nm was read using Spectra Max 384 (Molecular Devices).

[2] = target: T1, IDO; assay: LLE_IDO_ABS_DR (IDO assay)
[3] = target: T2, Human IDO1 (Homo sapiens, UniProt P14902); assay: IDO Kynurenine Assay with Human IDO1/HEK293 Cells; assay type: cell-based; conditions: read-out: HEK human IDO-1 (IC50)
T2 construct: expressed in transfected cells; host or cells: HEK293
Summary of the method: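 HEK293 cells stably expressing human IDO1, in phenol red-free RPMI/10% FBS, exposed to compound for 20 h at 37 °C. Stopped with 0.2% TCA (50 °C, 30 min); kynurenine in supernatant detected with Ehrlich reagent, absorbance 490 nm.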

T1 sequence (P14902 whole entry): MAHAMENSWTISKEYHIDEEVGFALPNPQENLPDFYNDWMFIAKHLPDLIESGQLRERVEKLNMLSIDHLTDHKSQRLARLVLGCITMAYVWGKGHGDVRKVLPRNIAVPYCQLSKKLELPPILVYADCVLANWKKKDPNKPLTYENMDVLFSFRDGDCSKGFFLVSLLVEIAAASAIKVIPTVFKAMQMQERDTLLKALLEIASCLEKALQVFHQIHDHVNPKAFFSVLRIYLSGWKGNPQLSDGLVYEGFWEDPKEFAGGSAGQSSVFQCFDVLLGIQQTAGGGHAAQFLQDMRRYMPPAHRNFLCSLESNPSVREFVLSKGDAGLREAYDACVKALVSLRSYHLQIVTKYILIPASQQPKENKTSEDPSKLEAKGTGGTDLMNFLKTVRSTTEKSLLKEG
T2 sequence (P14902 whole entry): as above

`Cc1ccc(NC(=O)Nc2cc(-c3ccccc3-c3nnn[nH]3)ccc2N(CC(C)C)CC(C)C)cc1` [Example 1, 1-(4-(Diisobutylamino)-2′-(1H-tetrazol-5-yl)biphenyl-3-yl)-3-p-tolylurea] showed an IC50 [1] of 1.37 nM, an IC50 [2] of 3.45 nM and an IC50 [3] of 3.31 nM.

For `CN(c1ccc(-c2ccccc2-c2nnn[nH]2)cc1NC(=O)Nc1ccccc1F)C1CCCCC1` [Example 214, 1-(4-(cyclohexyl(methyl)amino)-2′-(1H-tetrazol-5-yl)biphenyl-3-yl)-3-(2-fluorophenyl)urea], the IC50 [1] was 1.07 nM and the IC50 [2] was 2.36 nM.

`Cc1ccc(NC(=O)Nc2cc(-c3ccccc3C(=O)O)ccc2N(CC(C)C)CC(C)C)cc1` [Example 52, 4′-(diisobutyl-amino)-3′-(3-p-tolylureido) biphenyl-2-carboxylic acid] was tested, and the IC50 [1] was 5.57 nM and the IC50 [2] was 10 nM.

In the case of `CCN(c1ccc(-c2ccccc2-c2nnn[nH]2)cc1NC(=O)Nc1ccccc1F)C1CCCCC1` [Example 53, 1-(4-(cyclohexyl (ethyl)amino)-2′-(1H-tetrazol-5-yl)biphenyl-3-yl)-3-(2-fluorophenyl) urea], the IC50 [1] is reported as 0.772 nM and the IC50 [2] is reported as 3.45 nM.

`Cc1ccc(NC(=O)Nc2cc(-c3ccccc3-c3nnn[nH]3)ccc2N(CC(F)F)CC2CC2)cc1` [Example 60, 1-(4-((cyclopropylmethyl) (2,2-difluoroethyl)amino)-2′-(1H-tetrazol-5-yl)biphenyl-3-yl)-3-p-tolylurea] was tested, and the IC50 [1] was 140 nM and the IC50 [2] was 140 nM.

`Cc1ccc(NC(=O)Nc2cc(-c3ccccc3-c3nnn[nH]3)c(F)cc2N(CC(F)F)CC2CC2)cc1` [Example 223, 1-(4-((cyclopropylmethyl)(2,2-difluoroethyl)amino)-6-fluoro-2′-(1H-tetrazol-5-yl)biphenyl-3-yl)-3-p-tolylurea] gave an IC50 [1] of 160 nM and an IC50 [2] of 420 nM.

`CN(c1ncc(-c2ccccc2-c2nnn[nH]2)cc1NC(=O)Nc1ccccc1F)C1CCCCC1` [Example 37, 1-(5-(2-(1H-Tetrazol-5-yl)phenyl)-2-(cyclohexyl(methyl)amino)pyridin-3-yl)-3-(2-fluorophenyl)urea] gave an IC50 [1] of 10 nM and an IC50 [2] of 40 nM.
